The term GI50 denotes the concentration giving 50% growth inhibition. As usually defined, the LC50 is the concentration that kills 50% of the test population. A higher LC50 goes with a less lethal substance. One may read the TGI as the concentration at which net growth stops.

Read-outs that look alike come from different tables or passages of the source.

This note sets out measurements from publication PMC10866072, “Design, synthesis, molecular modelling and biological evaluation of novel 6-amino-5-cyano-2-thiopyrimidine derivatives as potent anticancer agents against leukemia and apoptotic inducers” (Journal of Enzyme Inhibition and Medicinal Chemistry, 2024).

Experiment [1] has as its system SN12C. It is filed as cell-based, human. The settings on record: Homo sapiens, one dose 10^-5 M, 48 h.
Experiment [2] relates to leukaemia SR cells. Nature of the experiment: Annexin V-FITC/PI apoptosis and necrosis assay. It is filed as cell-based, human. To be noted: 48 h treatment. As for the experimental part: (§1) For more assessment of compound 1c, apoptosis assay was performed using annexin V-FITC Apoptosis detection kit (Biovision, cat#: K101-25) followed by flow cytometric analysis[92]^,[93]. Briefly, HL60 and leukaemia SR cells were cultured under optimum conditions followed by compound I c treatment for 48 h. then, washed in PBS, centrifuged, and resuspended in 500 µl of 1 x binding buffer. Moreover, 5 µl of annexin V-FITC, and 5 µl of propidium iodide were added and incubated in dark for 5 min. Finally, apoptotic cells were detected using flow cytometer as well as PI staining by emission signal detector. FACS Calibur flow cytometer (Becton Dickinson Biosciences) was used to analyse the cells’ apoptosis.

In experiment [3] the test system is HL60 cells. Nature of the experiment: Annexin V-FITC/PI apoptosis and necrosis assay. It counts as cell-based, human. To be noted: HL60, 48 h treatment. The procedure:
as §1

The subject of experiment [4] is SNB-75. It counts as cell-based.
Experiment [5] concerns full NCI 60 cell lines panel.
The subject of experiment [6] is BT-549. It is filed as cell-based.
The mark [7] stands for this setting: Homo sapiens, one dose 10^-5 M, 48 h.

As for `N#Cc1c(N)nc(S)nc1-c1ccc(Cl)cc1Cl` [Compound 1c, 4-Amino-6–(2,4-dichlorophenyl)-2-mercaptopyrimidine-5-carbonitrile], the % growth at 10 µM came out at 62.1% in experiment [1] and 36.5% in experiment [4] (setting [7]). In addition, the early apoptosis stood at 14.97% in experiment [2] and 23.79% in experiment [3]. Besides, the figures for the late apoptosis in experiment [2] and in experiment [3] were 23.02% and 9.89%, respectively. For the same compound, the necrosis percentage is 4.72% in experiment [2] and 3.41% in experiment [3]. Besides, the concentration for 50% growth inhibition (GI50) in experiment [4] (Homo sapiens, five-dose) was 4.9 µM; in experiment [5] (Homo sapiens, 60 cell, read-out: MID^a, average sensitivity of all cell lines (GI50)), 12.9 µM; in experiment [5] (Homo sapiens, 60 cell, read-out: full panel GI50 (MG-MID)), 6.76 µM; in experiment [6] (Homo sapiens, five-dose), 14.9 µM. Further, in experiment [4] (Homo sapiens, five-dose), the median lethal concentration (LC50) is 79.9 µM. Moreover, the TGI in experiment [4] (five-dose) amounted to 25.50 µM; in experiment [6] (five-dose), 30.50 µM. The activity at 10 µM in experiment [5] (Homo sapiens, 60 cell, 48 h, read-out: Mean % growth) is 53.3%. Besides, the CC50 in experiment [5] (Homo sapiens, 60 cell, read-out: LC50 values (MG-MID)) is 77.6 µM; in experiment [6] (Homo sapiens, five-dose, read-out: LC50 (the source's name)), 62.7 µM. Further, the “log10 GI50, range over all 60 cell lines” value in experiment [5] (five-dose) is reported as −4.50 to −7.25. In experiment [5] (one dose, range over those cell lines), the “% growth values, cell lines with lethal effect” value was −18.77 to −49.21%. In experiment [6] (setting [7]), this compound came in with a % cell growth at 10 µM of 42.1%.
